Assay: Human HepG2 cell viability assay in 384 well format
Type: toxicity, cell-based
Set-up: dose 125 nL, time 70.5 hour; cytotoxicity at 70.5 h: concentration not given beside the values
Conditions: HepG2 cells, read-out: Inhibition

SMILES	cytotoxicity at 70.5 h
Cc1nnc2n1CCN(C(=O)c1cc(C)n(-c3cccnc3)c1C)C2	-1.82%
Cc1cccc(CN2Cc3[nH]nc(COc4cccnc4)c3C2)n1	-3.62%
Cn1c(CC(=O)O)c(Sc2ccccc2)c2ccccc21	-0.644%
CN(CCc1ncnn1-c1ccccc1Cl)C1CCS(=O)(=O)C1 (configuration not stated)	-17.7%
COc1ccc(F)cc1-n1cnc(CCNC(C)=O)c1	16.3%
Cc1ccc(C(=O)N2CCN(CCCSCC#N)CC2)cc1F	-7.64%
CCOCCCNC(=O)C1(C)CCC(=O)N1Cc1ccccc1F (configuration not stated)	0.95%
CN(C)Cc1n[nH]c2c1CCN(Cc1cccs1)C2	-4.47%
Fc1ccc(NCc2nnsc2Cl)c(OC(F)F)c1	0.194%
Cc1nn(C)c2c(N3CCSCC3)nc(C3CC3)nc12	-4.86%
NC(=O)c1ccc(NC(=O)c2ccncc2F)cn1	10.3%
NC(=O)C(NC1CCN(Cc2ccc(F)cc2)CC1)c1ccccc1 (configuration not stated)	-13.1%
CCC(NC(=O)CS(=O)(=O)C1CCCC1)c1cc(F)ccc1F (configuration not stated)	-7.05%
Cc1nc2sccn2c1CNc1ccc(C(=O)O)cc1	-7.07%
CCn1c(Cn2cncn2)nnc1C1CCN(C[C@H]2[C@@H]3CNC[C@@H]32)CC1	-20.4%
O=C(NCc1ccc(CN2CCCC2)cc1)NC1(CO)CCCC1	2.2%
O=C(c1coc(COc2cccc3cnccc23)n1)N1CCCCCC1	-1.27%
O=C1N(c2cccc(F)c2)Cc2nc(=O)n(Cc3ccc(Cl)cc3)n21	-12.7%
COc1ccc(NC(=O)c2ccc(-n3ncc(C#N)c3N)cc2)cn1	3.5%
Cc1c(NC(C)C(C)C)cccc1C(=O)NCc1ccnn1C (configuration not stated)	4.31%
O=C(CCn1ccc2cc(Br)ccc21)/N=c1\[nH]nc(C2CCCO2)s1 (configuration not stated)	-12%
COC1COC2(CCN(Cc3ccc(Cl)cc3)CC2)C1 (configuration not stated)	6.16%
C[C@H]1C[C@@H]2CCN(C(=O)c3ccncn3)C[C@H]2O1	-0.838%

SMILES	cytotoxicity at 70.5 h
CC(C)c1nn(C)c(N(C)C)c1CNCc1cccnc1N(C)C	0.645%
CCN(CC(=O)Nc1cc(Cl)ccc1C)C(=O)c1ccc(=O)[nH]n1	-2.64%
Cc1ccc(CN2CCn3cc(CN4CCN(C)CC4)nc3C2)cc1	-13.5%
Cc1ccc2[nH]c(=O)c(CN(C)Cc3cc(C4CC4)[nH]n3)cc2c1	11.1%
Cc1nnc(CN(Cc2ccccc2Br)C2CC2)o1	-8.83%
CC(C)(C)C(CCO)NC(=O)Nc1ccncc1 (configuration not stated)	23.3%
Cc1nc2c(c(N3CCCC(OCc4ccccn4)C3)n1)CCNCC2 (configuration not stated)	-14.9%
Cc1nc(C)c(CCNc2ccc(S(N)(=O)=O)cc2C#N)s1	-15%
Cn1ncc2c(N3CCN(C(N)=O)CC3)nc(C3CCCC3)nc21	16.3%
O=C1NC(c2ccccc2)=N[C@@]12CC[C@@H]1CN(Cc3cccnc3)C[C@@H]12	-0.723%
Cc1nc2cc(F)cc(C(=O)N3CCN(CCO)CC3)c2nc1C	-5.18%
CN(CCC#N)C(=O)CN1CCCN(Cc2noc(C3CC3)n2)CC1	-0.995%
COc1nccc(N2CC[C@H](N3CCOCC3)[C@H](CCCO)C2)c1C#N	-7.48%
NC(=O)C(NC(=O)CCc1ccc(Cl)s1)c1ccccc1 (configuration not stated)	-7.77%
CCN(CC)C1CCN(C(=O)c2cc(CC(C)C)nn2CC)C1 (configuration not stated)	3.49%
CCn1ccnc1CN(C)c1cc(C2CC2)ncn1	-5.12%
Cc1cc(C)n2c(CNCc3ccc(OC(F)F)cc3)cnc2n1	-9.15%
O=C(CCCc1nnc(-c2ccccc2)o1)N1CCC1	-14.2%
Cn1cc(C2CCCN2Cc2csc(-c3ccsc3)n2)cn1 (configuration not stated)	-0.271%
CN(Cc1ccc([S+](C)[O-])cc1)c1ccccn1 (configuration not stated)	-10.9%
O=C(Cc1ccsc1)NCCc1ccoc1	-8.57%
Cc1cc(C)cc(C(=O)N2CCN(C(=O)N(C)C)CC2(C)C)c1	-0.125%
Cn1cc(C2CC(=O)NC23CCN(C(=O)C2CC=CC2)CC3)cn1 (configuration not stated)	18.7%

SMILES	cytotoxicity at 70.5 h
CN(Cc1ccc2nsnc2c1)C(=O)CCc1cc2n(n1)CCCNC2	-8.3%
c1ncn(CC2CCCN(Cc3nnc(C4CC4)o3)C2)n1 (configuration not stated)	11.5%
O=C(c1ccnc(C2CCNCC2)c1)N1CCCC1	7.01%
CCN(C)Cc1n[nH]c(=O)n1-c1cc(F)ccc1C	-5.83%
CC(C)N(C)C(=O)C1=NOC2(CCN(C(=O)c3ccc(Cl)cc3)C2)C1 (configuration not stated)	-0.00349%
Cc1noc(C(C)C)c1C(=O)NCC1CCCN1Cc1ccccc1 (configuration not stated)	9.45%
CN(Cc1ccccn1)C(=O)[C@H]1CO[C@H]2CCN(CC3CC3)C[C@H]2C1	-5.92%
CCc1nc(C)c(C(=O)N2C[C@@H](C(=O)O)[C@H](C3CC3)C2)s1	-4.51%
CN(C)c1ncc(CNC(=O)Nc2ccccc2F)n1C	-1.14%
O=C(CNC(=O)C1CCCC1)NCC(O)c1ccc2ccccc2c1 (configuration not stated)	-0.471%
CCOc1cc(CN(C)CC(C)(C)O)ccc1OC(F)F	4.76%
COCCn1c(=O)n(C)c(=O)c2ccc(C3CCN(C(C)=O)CC3)nc21	-1.06%
CC(O)CN1CCC(CNCc2ccc(S(C)(=O)=O)cc2)CC1 (configuration not stated)	-3.17%
O=c1cc(CN2CCCC2)nc2n1CCCN(Cc1ccco1)C2	-2.44%
Cc1ccc(N2CCC3(CC2)CCN(C2CCOCC2)CC3)nn1	-2.19%
COCCC(Cc1cccc(Br)c1)C(N)=O (configuration not stated)	-7.63%
CN(C)C(=O)CN1C[C@@H]2CC[C@H](C1)N(C(=O)CCCn1cncn1)C2	-8.72%
O=C(c1cnco1)N1C[C@@H]2CC[C@H](Oc3cccc(F)c3)[C@@H]2C1	-3.26%
Cc1nn(C)c2sc(C(=O)N3CCCC(n4ccnc4C)C3)cc12 (configuration not stated)	-7.74%
Cn1ncc(NC(=O)Cn2cc(-c3ccc(F)cn3)cn2)n1	-10.2%
Cc1cc(CNCC2(O)CCOCC2)ccc1Br	4.13%
O=C(Cc1ccccn1)N1CCC(O)(Cn2ccc3ccncc32)CC1	-6.87%
COc1cccc(S(=O)(=O)CCN2CCn3c(C)nnc3C2)c1	1.41%

SMILES	cytotoxicity at 70.5 h
N#Cc1ccc(CNC(=O)NC2CCN(c3ncccn3)CC2)cc1	-7.8%
COc1ccc(S(=O)(=O)N2C[C@@H]3CN(C)CCO[C@@H]3C2)cc1	-4.18%
CC(C)N1C[C@H](O)C[C@H]1c1nc(-c2ccc(OC(F)(F)F)cc2)no1	-3.17%
Cc1nccn1C1CCCN(C(=O)c2cc3ccccc3[nH]2)C1 (configuration not stated)	42.8%
Cc1cccc(C(=O)N2C[C@H](NS(C)(=O)=O)[C@@H]3OCCC[C@@H]32)n1	-10.2%
Cc1nsc(NC(=O)N2CCC(C(C)(C)O)CC2)n1	-5.05%
Cc1ccccc1N1CCCN(CC2(O)CCCNC2)CC1 (configuration not stated)	20.3%
O=C(Nc1ccccn1)NC1CCN(c2ccccc2OC(F)F)C1 (configuration not stated)	-2.08%
CCC(C)(CC(=O)OC)NC(=O)c1ccc2[nH]ccc2c1 (configuration not stated)	-10.1%
CNC(=O)CCc1cc(C2CCCCN2C)nc(C)n1 (configuration not stated)	-7.9%
CN1CCCN(C(=O)NCCNc2cnccn2)CC1	-3.22%
CC(C)(C)c1nc(CN2CCC3(CCCO3)CCC2=O)no1 (configuration not stated)	-5.98%
CCN1CCCC(c2c(-c3ccccc3)ncn2Cc2cccnc2)C1 (configuration not stated)	-9.92%
CN(CC(=O)Nc1cnn(-c2ccccc2S(C)(=O)=O)c1)C1CC1	-3.94%
Cc1cc2c(cc1Cl)C=CC1(CCN(C(=O)N3CCOCC3)CC1)O2	22%
COc1cccc(CC(=O)N2CCc3ncnc(C)c3CC2)c1	-5.98%
O=C(CCNS(=O)(=O)c1ccc(F)cc1)NCc1ccoc1	-9.41%
Cc1nnc2n1CCN(Cc1ncc(-c3ccc(F)cc3)o1)C2	-1.84%
CC(CC#N)N(C)Cc1ccccc1F (configuration not stated)	-9.07%
Cc1ccsc1CNC(=O)c1ccc(N2CCNC2=O)cc1	-10.8%
NC(=O)NC(=O)CCn1ccc(-c2ccsc2)n1	-1.15%
CCc1nc(C)c(C2CC(=O)Nc3c2c(-c2ccccn2)nn3C)[nH]1 (configuration not stated)	1.83%
Cc1cc(CN2CC[C@@H]3O[C@@H](c4nnc(C)o4)C[C@H]3C2)no1	-3.3%

SMILES	cytotoxicity at 70.5 h
O=C(c1cccc(F)c1)N1CCCN(Cc2cscn2)CC1	21.5%
O=C1CO[C@@H]2CN(Cc3ccncc3)C[C@H]2N1Cc1ccncc1	-7.94%
CN(C)C[C@@H]1CN(C(=O)c2cc(S(N)(=O)=O)ccc2F)C[C@@H]1CO	-4.5%
COc1cc(C(=O)N2CC3(CCNCC3)c3cc(Cl)ccc32)ccn1	-6.87%
CCOc1ccccc1NC(C)C(=O)N(C)Cc1cccc(F)c1 (configuration not stated)	6.19%
O=S(=O)(NCC1CCCN(Cc2ccccc2F)C1)C1CC1 (configuration not stated)	-5.21%
O=C(Cn1c(=O)nc2n1C(=O)N(c1ccccc1)C2)NC1CCCCC1	-7.65%
O=C(CN1CCC(c2ccnn2CCO)CC1)NCC1CCCCC1	-3.43%
CSc1ccccc1-n1ccnc1-c1cn(C2CCNCC2)nn1	2.69%
CCOc1ncccc1CNC(=O)Nc1ccc(N(C)C)nc1	17.3%
COc1c(C)cc(S(=O)(=O)NCC2CNCCOC2)cc1C (configuration not stated)	3.62%
Fc1ccccc1CN1CCC(c2n[nH]c(C3CC3)n2)CC1	-5.65%
Cc1cc2c(N3CCCC(OCc4cccnc4)C3)ncnc2s1 (configuration not stated)	-9.75%
Cc1nc(N2CCCC2)nc(C)c1NS(=O)(=O)c1ccccc1F	-1.28%
COCCNC(=O)C[C@@H]1COC[C@H]2CN(C(=O)C3CCOCC3)C[C@@H]12	1.49%
Cc1cnc(NCc2ccc(S(=O)(=O)N(C)C(C)C)cc2)nc1C	-11.1%
Cc1cccc(CNC2CC3(CCN(CCO)CC3)c3ccccc32)n1 (configuration not stated)	2.24%
CC(C)OC(=O)N1CCCCC1CCn1cccn1 (configuration not stated)	-7.8%
NC(=O)C1CCN(CC(=O)NCCn2cc(Cl)cn2)CC1	13.2%
CC(=O)N(Cc1noc(C)n1)C1CCN(Cc2ccc(C#N)cc2)C1 (configuration not stated)	30.3%
